In patent US20140011755A1, “Cardiac Glycosides for Treating Autoimmune Disease” (Department of Veterans Affairs, priority 2010, published 2014):

How the values were obtained:
[1] = molecular target: T1, CD40 (Mus musculus, UniProt P27512); assay: CD40-mediated B cell proliferation (anti-CD40, CD40L); type: cell-based, mice; settings: pre-treatment of B cells
T1 construct: Peritoneal and bone marrow-derived macrophages were isolated from CIA mice; endogenous in cells; host or cells: peritoneal and bone marrow-derived macrophages from CIA mice
T1 sequence (P27512 20-289): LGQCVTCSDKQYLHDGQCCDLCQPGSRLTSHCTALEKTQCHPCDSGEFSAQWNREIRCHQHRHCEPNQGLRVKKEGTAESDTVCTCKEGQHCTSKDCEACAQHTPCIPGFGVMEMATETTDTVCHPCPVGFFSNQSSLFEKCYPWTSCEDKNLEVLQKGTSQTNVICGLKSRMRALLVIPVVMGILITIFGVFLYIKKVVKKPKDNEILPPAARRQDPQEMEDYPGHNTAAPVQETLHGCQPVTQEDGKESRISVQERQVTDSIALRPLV
Protocol: Activity was monitored by ^3H-thymidine incorporation as a read-out for proliferation. […] Cell type(s) in the splenocyte population responsive to therapeutic concentrations of cardiac glycoside were determined by identifying the population of cells that responded to a dose-dependent decrease in activity in the presence of stimulant, defined as ligand(s) binding to cognate receptor(s). Activity was analyzed by: ^3H-thymidine or BrdU incorporation to monitor proliferation or by ELISA to monitor cytokine production. Splenic T lymphocytes were isolated by negative selection (MACS, Miltinyi Biotec) and are stimulated with PMA, ConA or through the TCR with anti-CD3/anti-CD28 Dynabeads (Invitrogen) and collagen II (all non-TNFR receptors/pathways). […] Peritoneal and bone marrow-derived macrophages were isolated from CIA mice in the presence of M-CSF growth factor and were stimulated with TNF and CD40 ligand (CD40L). […] Splenic B lymphocytes were isolated by negative selection (MACS, Miltinyi Biotec) and were stimulated with BAFF (BLyS), CD40L or through the BCR with anti-IgM u-chain specific antibodies.

[2] = test system: SLE-like disease; assay: MRL-Ipr mouse model of systemic lupus erythematosus; type: in vivo, MRL-Ipr female mice
Protocol: FIG. 16. […] SLE-like disease progression in MRL-Ipr female mice (Jackson Laboratories) was evaluated. Briefly, 10 mice per treatment arm were followed for the development of SLE-like disease over the course of 16 weeks. […] Animals were scored on a weekly basis for proteinuria and survived until 23 weeks of age. Data represent the average proteinuria concentration in urine collected from each mouse using Uristix (Bayer Corp.). Error bars represent SEM. The Mann-Whitney test was used to determine significance between vehicle and digitoxin groups. Asterisks represent significant P values <0.01.
FIG. 17. […] At endpoint, 23 week old female MRL-Ipr mice were sacrificed and kidneys were fixed, embedded in paraffin, sectioned longitudinally and stained for glomeruli with periodic acid-Schiff stain (Histotec). (A) Depiction of a section taken from a representative vehicle treated kidney. (B) Depiction of a section taken from a representative digitoxin treated kidney.
FIG. 18. […] Endpoint serum titers were taken for each mouse and the concentration of anti-double-stranded DNA (ANA) antibodies were assessed (A). […] ANA antibodies were measured using ELISA (Alpha Diagnostic International). Error bars represent the SEM. The student t-test was used to determine significance. Asterisks represent significant P values.
Cardiac glycosides are used for the treatment of systemic lupus erythematosus and other forms of multi-system inflammatory diseases. […] Studies are conducted to determine the ability of cardiac glycosides to treat SLE. The effectiveness of cardiac glycosides at treating SLE disease progression in MRL-Ipr female mice (Jackson Laboratories) was evaluated. Briefly, 10 mice per experimental arm were followed for the development of SLE disease. […] Animals were scored on a weekly basis for proteinuria and survived until 23 weeks of age (FIG. 16). Weekly proteinuria monitoring was performed using Uristix (Bayer Corp.). […] Endpoint serum titres of double-stranded DNA (ANA) antibodies for each mouse were assessed (FIG. 18 A). […] ANA antibodies were measured using ELISA (Alpha Diagnostic International). […]

[3] = test system: IL-10 cytokine secretion from B cells; assay: IL-10 secretion (ELISA) by splenic B cells from treated MRL-Ipr mice; type: cell-based
Protocol: FIG. 19. […] MACS-purified B cells from vehicle or digitoxin-treated 23 week-old female MRL-Ipr mice were harvested from the spleen. 2×10^5 B cells were incubated either media, mifespristone (0.8 nM), Jak inhibitor I (15 nM), STAT3 inhibitor VI (500 μM) or dasatinib (1.1 nM) for 60 minutes, washed and incubated for 48 hr at 37° C. Cell supernatant was collected and ELISAs were used to quantify the amount of secreted IL-10 cytokine in each condition. Data represent the average of triplicate conditions and error bars represent the SEM. Statistical significance was performed using the student t-test.

[4] = test system: regulatory T cells; assay: FACS of regulatory T cells in splenocytes of treated CIA mice; type: in vivo, DBA1/J mice; settings: 0.3 mg/kg treated CIA mice, 4 mice per group
Protocol: FIG. 25. […] (A) Representative data from mixed lymphocyte studies. […] B cells were washed, replated in complete RPMI supplemented with BAFF (1 ng/mL), anti-CD3 antibody (4 μg/mL) and were added to 5×10^5 naïve CD4^+ T cells purified by MACS. Cells were incubated for 72 hr prior to harvest. IL-6, IL-10, TGFβ and IL-17 cytokine levels were measured by ELISA (R&D Systems, Peprotech, and eBiosciences). Data represent the average absorbance (A450) of triplicates and error bars represent the SEM. […] Cells were fixed in 4% paraformaldehyde for 15 minutes, washed twice with PBS and blocked with FACS buffer. Cells were stained for regulatory T cells using anti-TCRβ, anti-CD4, anti-CD25 and anti-FoxP3 antibodies (Cell Signaling Technologies, R&D Systems, AbCam). FACS was performed on the FACS Aria (Becton-Dickenson). Data represent the average population in 500,000 cells from 4 mice per treatment group. Error bars represent the SEM.
It is known that B cells can regulate T cell differentiation and in many states of autoimmune disease, an imbalance of Th1, Th2, and Th17 T cell populations exist. […] We performed studies to determine the regulatory effector function of B cells pre-treated with cardiac glycoside on T cell differentiation. […]

## C[C@H]1O[C@@H](O[C@H]2[C@@H](O)C[C@H](O[C@H]3[C@@H](O)C[C@H](O[C@H]4CC[C@@]5(C)[C@H](CC[C@@H]6[C@@H]5CC[C@]5(C)[C@@H](C7=CC(=O)OC7)CC[C@]65O)C4)O[C@@H]3C)O[C@@H]2C)C[C@H](O)[C@@H]1O [Digitoxin, digitoxin]
[1]
  CD40L-mediated B cell proliferation: inhibited CD40L-mediated proliferation
  anti-CD40 mediated B cell proliferation: prevented anti-CD40 mediated B cell proliferation
[2]; 0.6 mg/kg every-4-days sublingual from week 8, 10 mice per arm, Mann-Whitney P<0.01
  disease severity (average proteinuria) in experimental lupus: decrease disease severity
[2]; 23 week old mice at endpoint, 0.6 mg/kg every-4-days sublingual
  kidney pathology (periodic acid-Schiff stained glomeruli): decrease kidney pathology
[2]; endpoint serum, ELISA
  endpoint serum anti-double-stranded DNA (ANA) antibodies: inhibit autoantibody production
[3]; 2×10^5 B cells from vehicle or digitoxin-treated 23 week-old mice, 48 hr, ELISA
  secreted IL-10 cytokine: induces IL-10 cytokine secretion
[3]; mifespristone 0.8 nM, Jak inhibitor I 15 nM, STAT3 inhibitor VI 500 μM or dasatinib 1.1 nM for 60 minutes
  mechanism dependence of IL-10 secretion (inhibitor pre-incubation): dependent on steroid receptors, Jak activity, and STAT3 activity, but not BCR-ABL or Src-like Family Kinase activity
[4]
  induction of regulatory T cells in vivo: induce regulatory T cells
